The values below are quoted from earlier work in US20230172904A1, “COMBINATION OF AN ANTIALLERGIC AGENT WITH MUSCARINIC ANTAGONIST AND/OR DOPAMINERGIC AGONIST FOR USE IN PREVENTING/STOPPING OF AXIAL MYOPIA IN HUMAN” (priority 2016, published 2023).

Series [1] has as its system axial myopia. The following applies: one drop of 1% Atropine collyrium at bedtime, chinese children, placebo controlled.
The subject of series [2] is axial myopia.

With `CN1[C@@H]2CC[C@H]1C[C@@H](OC(=O)C(CO)c1ccccc1)C2` (stereo partly drawn) [Atropine], the “subjects in whom the development of axial myopia was halted (stopping the elongation of the bulb)” value with axial myopia [1] was 90%. Besides, the “effect on myopia at reduced doses” value in the series on axial myopia [2] (dose reduced to 0.1%, 0.05% and 0.01%, children) was “dose dependent effect of atropine that is still acceptable at the lower concentration”. For the same compound, the “subjects who developed ocular redness and itching” value in the series on axial myopia [2] (pediatric population, allergic response of the conjunctiva) was “around 5%”.
